# Legend:
# Type in all cases: cell-based, Candida albicans
# C. albicans SC5314 = experiment: alamarBlue-based polystyrene adhesion assay; settings: for C. albicans adhesion to polystyrene: 25 μM
# Text: We prioritized the candidate compounds by testing the dose-dependence of their effects. Because of the laborious washing required to remove background crystal violet dye staining, we developed adhesion assays using alternative detection reagents. Previous experiments screens have used the vital dye alamarBlue to measure Candida viability (Lafleur, J. Antimicrob Chemother. 66: 820-826, 2011; Youngsaye supra), so we tested this reagent as a way to measure cells remaining adhered after washing. […] The majority of the reordered compounds were effective at reducing Candida adhesion at 50 μM, the concentration originally tested during the screen. […] Although compounds that were still effective at 25 μM were less generally less so at 7.5 μM (FIG. 1C), many candidates still reduced adhesion by >50% at this lower concentration.
# Overnight cultures of SC5314 and edt1^−/− cells were grown and plated onto Immulon 2HB 96-well microtiter plates and treated with small molecules as described above. Following incubations, media was decanted and plates were washed twice with 100 μl/well PBS. alamarBlue (Life Technologies) was resuspended to a final concentration of 5% in RPMI buffered with 0.165 M MOPS and then 100 μl was added to each well, followed by further incubation for 2 hours at 37° C. Fluorescence signals at 555Ex/585Em were read using a SpectraMax M5 Plate reader (Molecular Devices).
# [1] = test system: C. albicans hyphae formation; experiment: filamentation assay (hyphal morphogenesis); settings: for inhibition of hyphal formation and induction of RFP: 12.5 μM, Spider media 16 hours, HWP1-RFP reporter
# Text: Because the ability to interconvert between yeast and hyphal morphologies is usually correlated with pathogenicity (Finkel, 2010), we explored this observation in more detail. First, we assessed the effect of our compounds on the induction of hyphae by “Spider” media (Chauhan, 2009). For this experiment, we used a strain that contains the hyphal-specific HWP1 promoter to the Red Fluorescent Protein (RFP) open reading frame (Ganguly, 2011), which provides a molecular reporter for hyphae formation that we used in addition to visual examination of cell morphology. We initially tested each of the compounds that inhibit adhesion to polystyrene (FIG. 1B), as well as compounds #9, Q1 and Q2 (FIG. 3A), at concentration of 12.5 μM. […] Compounds Q1 and Q2 share a “Scaffold 1” backbone with compounds #4 and #9, but contain a quinoline group (FIG. 3A). Therefore, the compounds with a quinoline group can inhibit hyphae formation, but not adhesion to polystyrene or human cells (FIG. 3). […] Additionally, multiple chemical backbones are able to inhibit hyphae formation, because compound #12 has a “Scaffold 2” backbone (Table 2). To better discriminate the inhibitory compounds, we tested #4, 12 and Q1 at lower concentrations. […] Furthermore, as in the polystyrene adhesion assay (FIG. 8), compound #4 is effective at inhibiting hyphae formation at concentrations >2.5 μM.
# Overnight cultures of SC5314 or SGH584 were pregrown in uridine-supplemented SC media at 30° C. to an OD600>13 and diluted 1:10 into prewarmed Spider medium (1% Peptone (Difco), 1% Mannitol (Sigma) and 0.2% K2HPO4 (Sigma) (Chauhan, 2009) in glass tubes and grown for 16 hrs at 37° C. shaking at 200 rpm in the presence or absence of drugs as indicated. DIC and fluorescence images were acquired using a Zeiss Axiovert 200 inverted microscope equipped with a Qicam 12-bit Fast 1394 digital CCD camera (Qimaging). Image acquisition was carried out using Openlab 5 software (Improvison).
# Because the ability to interconvert between yeast and hyphal morphologies is usually correlated with pathogenicity, we explored this in more detail, examining induction of hyphae upon carbon starvation (using Spider media). We used a strain that contains the Red Fluorescent Protein (RFP) open reading frame driven by the hyphal-specific HWP1 promoter (Ganguly et al., Eukaryotic Cell 10:1448, 2011), which provides a molecular reporter for hyphae formation in addition to cell morphology. […] Therefore, the shared backbone of these compounds correlates with inhibition of multiple activities.
# Hyphal morphogenesis is induced by multiple stimuli that act via multiple signal transduction pathways and is mediated by a complex transcriptional network. […] We detected morphological difference between control and compound #4-treated cultures as early as 60 minutes in 10% serum, and 90 minutes in Spider media.
# SC5314 = experiment: growth rate in liquid culture; settings: 50 μM; liquid YPD, 30° C.
# Description: FIGS. 8A-8B. Characterization of compound #4. FIG. 8A is a graphs showing the IC50 for compound #4 measured using GFP adhesion assay. Assay performed as in FIG. 1D with the indicated concentrations of compound #4. Mean and standard deviations from 4 replicate well measurements are shown. FIG. 8B is a graph showing the effect of compound #4 on growth rate of SC5314 in liquid culture. SC5314 was grown in liquid YPD in a 30° C. shaker in the presence of 1% DMSO or compounds #4, 5, 6, 7 or 8 at 50 μM and the OD600 of the culture was measured at the indicated times. Cultures were also observed in the microscope, and we confirmed that the cells retained the budding yeast morphology during the course of this experiment.
# We performed several additional experiments to characterize the ability of compound #4 to inhibit Candida adhesion to polystyrene. […] Second, we tested whether compound #4 affects C. albicans cell growth rate. […] Therefore, compound #4 slows C. albicans growth but is minimally toxic to human epithelial cells (FIG. 2C), properties that are desirable for candidate antifungal compounds.
# Overnight cultures of […] were diluted to 0.1 OD/ml in fresh YPD and grown in a 30° C. shaker at 200 RPM in the presence of […] of compounds or 1% DMSO. OD 600 nm was measured during the time course to evaluate growth rate.
Compound,C. albicans adhesion to polystyrene (C. albicans SC5314),inhibition of hyphal formation and induction of RFP [1],synergy on adhesion upon combining compound #4 and compound #12 (C. albicans SC5314; #4 1.5 μM with #12 4 and 6 μM),"effect on adhesion of compound alone (C. albicans SC5314; compound #4 1.5 μM, compound #12 4 and 6 μM)",C. albicans cell growth rate (doubling time) (SC5314),hyphae formation induced by Spider media ([1]; 10 μM),earliest morphological difference between control and treated cultures ([1]; 10% serum),hyphal response to Spider media and mammalian serum ([1]; 37° C.),concentrations effective at inhibiting hyphae formation ([1]; Spider media),earliest morphological difference between control and treated cultures ([1]; Spider media),"formation of hyphae ([1]; Spider media, HWP1-RFP reporter (Example 14))",time at which effect could be detected after Spider media addition ([1]; protein reporter assay)
O=C(c1ccc(Cl)c(Cl)c1)N1CCN(c2ccc([N+](=O)[O-])cc2)CC1 [Compound 9],effective adhesion inhibitors,most potently inhibited hyphal formation and induction of RFP,–,–,–,–,–,–,–,–,–,–
Cc1ccc(C(=O)N2CCN(c3ccc([N+](=O)[O-])cc3)CC2)cc1Cl [Compound 4],effective adhesion inhibitors,most potently inhibited hyphal formation and induction of RFP,did not further reduce adhesion,partial effects,reduced the doubling time,completely blocked the hyphae formation,60 minutes,inhibited the response to both these stimuli,> 2.5 µM,90 minutes,blocked formation of hyphae,within two hours

# Source: patent publication US9648880B2, “Antifungal agents and uses thereof” (University of Massachusetts, priority 2012, dated 2017)
